# Data published in publication PMC3930694, “Small Molecule Inhibitors Target the Tissue Transglutaminase and Fibronectin Interaction” (PLoS ONE, 2014).
# Target: T1, Tissue transglutaminase (TG2) (Homo sapiens, UniProt P21980)
# T1 construct: gene TGM2; Full length TG2, His6-tagged, expressed in E. coli
# Experiment: competition ELISA with purified His6-TG2 and biotinylated FN42 (FN42 saturation curves, Lineweaver-Burk); AlphaLISA
# Type: binding
# T1 sequence (P21980 whole entry): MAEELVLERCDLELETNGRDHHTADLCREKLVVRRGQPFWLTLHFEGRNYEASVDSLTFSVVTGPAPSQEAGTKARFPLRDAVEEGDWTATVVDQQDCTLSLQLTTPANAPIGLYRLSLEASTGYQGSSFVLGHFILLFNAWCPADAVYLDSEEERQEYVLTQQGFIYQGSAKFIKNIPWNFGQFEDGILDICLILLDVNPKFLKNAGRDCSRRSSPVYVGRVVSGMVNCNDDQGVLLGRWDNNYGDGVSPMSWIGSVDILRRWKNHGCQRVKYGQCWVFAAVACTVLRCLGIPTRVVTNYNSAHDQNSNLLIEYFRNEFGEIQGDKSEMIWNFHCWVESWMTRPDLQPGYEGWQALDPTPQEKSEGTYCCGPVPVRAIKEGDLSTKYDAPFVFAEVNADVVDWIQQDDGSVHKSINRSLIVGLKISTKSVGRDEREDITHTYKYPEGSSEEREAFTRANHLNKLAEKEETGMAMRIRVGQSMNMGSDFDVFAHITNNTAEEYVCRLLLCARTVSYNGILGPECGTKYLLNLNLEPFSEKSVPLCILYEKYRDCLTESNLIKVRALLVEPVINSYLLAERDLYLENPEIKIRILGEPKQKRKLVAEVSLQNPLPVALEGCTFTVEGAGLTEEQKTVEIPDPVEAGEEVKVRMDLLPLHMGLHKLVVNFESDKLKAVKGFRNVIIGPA
# T1 sequence (P02751 32-2477 partner): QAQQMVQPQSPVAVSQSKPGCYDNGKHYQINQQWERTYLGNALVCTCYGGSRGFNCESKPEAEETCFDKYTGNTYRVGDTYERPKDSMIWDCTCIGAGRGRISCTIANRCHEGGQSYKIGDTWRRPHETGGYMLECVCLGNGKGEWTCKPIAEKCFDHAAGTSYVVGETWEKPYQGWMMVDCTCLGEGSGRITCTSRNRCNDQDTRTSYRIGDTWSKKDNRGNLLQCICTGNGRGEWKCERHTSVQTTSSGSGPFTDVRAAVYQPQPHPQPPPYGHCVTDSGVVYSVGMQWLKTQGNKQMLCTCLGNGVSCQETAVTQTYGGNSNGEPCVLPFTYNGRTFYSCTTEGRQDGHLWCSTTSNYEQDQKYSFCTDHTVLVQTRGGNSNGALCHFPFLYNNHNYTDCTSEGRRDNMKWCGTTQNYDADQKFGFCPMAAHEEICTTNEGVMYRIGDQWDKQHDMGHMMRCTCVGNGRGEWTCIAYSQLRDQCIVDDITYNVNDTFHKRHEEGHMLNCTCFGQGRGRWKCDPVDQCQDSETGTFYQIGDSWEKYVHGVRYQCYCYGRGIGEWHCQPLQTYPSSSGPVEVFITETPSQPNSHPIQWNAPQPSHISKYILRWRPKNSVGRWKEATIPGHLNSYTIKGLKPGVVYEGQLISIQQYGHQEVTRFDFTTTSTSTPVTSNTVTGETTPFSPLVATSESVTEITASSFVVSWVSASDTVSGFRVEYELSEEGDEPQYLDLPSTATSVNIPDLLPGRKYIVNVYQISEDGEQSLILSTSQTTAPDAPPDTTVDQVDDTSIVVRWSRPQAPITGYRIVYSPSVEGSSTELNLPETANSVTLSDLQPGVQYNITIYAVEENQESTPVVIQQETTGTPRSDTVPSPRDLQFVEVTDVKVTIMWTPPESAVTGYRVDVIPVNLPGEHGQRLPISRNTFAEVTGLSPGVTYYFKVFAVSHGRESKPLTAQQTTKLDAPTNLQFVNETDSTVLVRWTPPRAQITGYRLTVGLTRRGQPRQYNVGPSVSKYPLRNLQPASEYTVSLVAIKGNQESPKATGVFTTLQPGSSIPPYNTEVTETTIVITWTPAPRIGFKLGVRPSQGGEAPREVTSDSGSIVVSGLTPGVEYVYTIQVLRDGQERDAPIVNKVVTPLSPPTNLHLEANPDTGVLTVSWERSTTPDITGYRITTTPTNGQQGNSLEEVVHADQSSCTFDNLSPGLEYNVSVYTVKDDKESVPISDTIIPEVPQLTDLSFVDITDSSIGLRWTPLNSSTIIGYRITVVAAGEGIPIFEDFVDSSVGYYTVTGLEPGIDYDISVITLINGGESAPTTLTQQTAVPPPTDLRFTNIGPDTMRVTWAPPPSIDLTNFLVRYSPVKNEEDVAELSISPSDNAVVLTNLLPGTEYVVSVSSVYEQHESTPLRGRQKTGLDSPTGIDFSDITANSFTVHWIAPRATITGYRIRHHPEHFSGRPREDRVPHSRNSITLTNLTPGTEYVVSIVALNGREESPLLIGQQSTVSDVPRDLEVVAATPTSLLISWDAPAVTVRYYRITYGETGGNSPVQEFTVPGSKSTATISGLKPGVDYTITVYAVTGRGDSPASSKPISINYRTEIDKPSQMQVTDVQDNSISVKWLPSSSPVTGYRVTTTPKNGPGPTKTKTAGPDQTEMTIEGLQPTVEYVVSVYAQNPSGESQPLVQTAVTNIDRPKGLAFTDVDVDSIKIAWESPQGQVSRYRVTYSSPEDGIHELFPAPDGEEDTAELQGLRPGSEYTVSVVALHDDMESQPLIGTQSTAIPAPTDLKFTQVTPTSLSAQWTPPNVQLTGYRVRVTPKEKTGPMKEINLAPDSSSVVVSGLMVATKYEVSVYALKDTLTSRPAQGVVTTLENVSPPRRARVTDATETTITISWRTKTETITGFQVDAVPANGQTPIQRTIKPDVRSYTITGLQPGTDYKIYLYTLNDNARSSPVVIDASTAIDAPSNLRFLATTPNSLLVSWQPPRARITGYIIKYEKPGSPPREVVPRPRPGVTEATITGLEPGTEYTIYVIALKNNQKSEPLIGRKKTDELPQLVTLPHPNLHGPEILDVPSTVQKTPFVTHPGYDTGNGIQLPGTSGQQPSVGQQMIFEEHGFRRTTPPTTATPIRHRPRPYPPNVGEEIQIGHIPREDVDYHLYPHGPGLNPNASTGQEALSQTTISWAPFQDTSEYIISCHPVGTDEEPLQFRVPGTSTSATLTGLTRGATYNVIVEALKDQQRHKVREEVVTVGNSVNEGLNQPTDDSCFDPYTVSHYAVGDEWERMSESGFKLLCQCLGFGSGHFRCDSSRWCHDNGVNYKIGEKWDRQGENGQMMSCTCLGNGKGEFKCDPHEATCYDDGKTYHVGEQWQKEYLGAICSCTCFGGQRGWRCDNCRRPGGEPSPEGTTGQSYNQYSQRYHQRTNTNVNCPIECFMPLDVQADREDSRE
smiles,measurement,value
COc1ccc(Cl)cc1C(=O)Nc1ccc(Nc2nc(C)cc(N(C)C)n2)cc1 [TG53],Ki,4.15 µM
